# Publication PMC8596843, “Platinum Cyclooctadiene Complexes with Activity against Gram‐positive Bacteria” (Chemmedchem, 2021)
# Marks after values point to notes of the source that are not given here.
# Tests used:
# [1] = system: Bacillus subtilis ATCC 6051, type strain; test: Antibacterial MIC assay, Gram-positive panel; type: cell-based; conditions: n=2
# Procedure: (§1) Smiles: C1C=CCCC(=CC1)C1=CCCC=CCC1.C[Pt]C.C[Pt]C […]
# (§2) ATCC strains were sourced from the American Type Culture Collection and NRS strains from NARSA (Network on Antimicrobial Resistance in Staphylococcus aureus) via BEI Resources (www.beiresources.org), with clinical MSSA and MRSA isolates from Prof Graeme Nimmo, Queensland […]
# (§3) Health Central Pathology. […]
# (§4) Antibacterial minimum inhibitory concentration (MIC) assay
# (§5) Compound Assay Plate Preparation: Compounds were dissolved in DMSO at 10mM (CO-ADD screening) or 4 mM (follow up screening) and were plated in a 2-fold dose response from 20 to 0.156 µM or 200 to 0.006 µM respectively, with a maximum of 0.5% or 1% DMSO, final in the assay […]
# (§6) plated in a 2-fold dose response from 200 to 0.006 µM, with a maximum of 1 % DMSO, final in the assay concentration. (in-house screening)
# (§7) For all the bacterial assays, each strain was cultured in Cation-adjusted Mueller Hinton broth (CAMHB; Bacto Laboratories 212322) at 37 °C overnight. A sample of each culture was then diluted 40-fold in fresh CAMHB and incubated at 37 °C for 1.5–3 h. The resultant mid-log phase cultures were diluted with CAMHB (CFU mL−1 measured by OD600), then added to each well of the compound-containing plates (384-well non-binding surface (NBS) plates; Corning CLS3640), giving a cell density of 5 × 10^5 CFU mL−1 and a total volume of 50 μL. Plates were covered and incubated at 37 °C for 18 h without shaking. Inhibition of bacterial growth was determined measuring absorbance at 600 nm (OD600), using media only as negative control and bacteria without inhibitors as positive control. MIC values were determined as the lowest concentration at which the growth was inhibited at ≥80%. Colistin sulfate (Sigma C4461) and vancomycin HCl (Sigma 861987) were used as internal controls on each plate for Gram-negative and Gram-positive bacteria, respectively. […]
# [2] = system: Enterococcus faecalis ATCC 29212, control strain; test: Antibacterial MIC assay, Gram-positive panel; type: cell-based; conditions: n=4
# Procedure: as §1, §2, §3, §4, §5, §6, §7
# [3] = system: Staphylococcus epidermidis NRS 60, VISE; test: Antibacterial MIC assay, Gram-positive panel; type: cell-based; conditions: n=4
# Procedure: as §1, §2, §3, §4, §5, §6, §7
# [4] = system: Enterococcus faecalis Clinical Isolate, VRE (VanB); test: Antibacterial MIC assay, Gram-positive panel; type: cell-based; conditions: n=4
# Procedure: as §1, §2, §3, §4, §5, §6, §7
# [5] = system: Enterococcus faecium Clinical Isolate, VRE (VanA); test: Antibacterial MIC assay, Gram-positive panel; type: cell-based; conditions: n=4
# Procedure: as §1, §2, §3, §4, §5, §6, §7
# [6] = system: Enterococcus faecium ATCC 51559, MDR, VRE (VanA); test: Antibacterial MIC assay, Gram-positive panel; type: cell-based; conditions: n=2
# Procedure: as §1, §2, §3, §4, §5, §6, §7
# [7] = system: Staphylococcus epidermidis ATCC 14990, type strain; test: Antibacterial MIC assay, Gram-positive panel; type: cell-based; conditions: n=4
# Procedure: as §1, §2, §3, §4, §5, §6, §7
# [8] = system: Enterococcus faecium ATCC 35667, type strain; test: Antibacterial MIC assay, Gram-positive panel; type: cell-based; conditions: n=4
# Procedure: as §1, §2, §3, §4, §5, §6, §7
# [9] = system: Acinetobacter baumannii ATCC 19606; test: Antibacterial MIC assay; type: cell-based; conditions: CO‐ADD screening
# Procedure: (§8) All compounds submitted to CO‐ADD are initially screened against five bacterial strains (Staphylococcus aureus (MRSA), E. coli, Klebsiella pneumoniae, Pseudomonas aeruginosa, Acinetobacter baumannii) and two fungal strains (Candida albicans, Cryptococcus neoformans) at a single concentration (32 μg/mL or 20 μM) performed as a high‐throughput primary screening.[[11], [17a]] Any compounds that show significant growth inhibition against any of the tested strains at this step are then evaluated in a dose‐response assay against these same strains. […]
# as §1, §2, §3, §4, §5, §6, §7
# [10] = system: Escherichia coli ATCC 25922; test: Antibacterial MIC assay; type: cell-based; conditions: CO‐ADD screening
# Procedure: as §8, §1, §2, §3, §4, §5, §6, §7
# [11] = system: Pseudomonas aeruginosa ATCC 27853; test: Antibacterial MIC assay; type: cell-based; conditions: CO‐ADD screening
# Procedure: as §8, §1, §2, §3, §4, §5, §6, §7
# [12] = system: Cryptococcus neoformans H99 ATCC 208821; test: Antifungal MIC (CO-ADD screening); type: cell-based
# Procedure: (§9) InChIKey: PHIWIZAHOBWKFJ-HPCBIOCFSA-N
# (§10) Health Central Pathology. Candida albicans (ATCC 90028, NCCLS 11), Cryptococcus neoformans
# as §4
# (§11) concentration. (in-house screening)
# (§12) Bacto Laboratories 212322) at 37 °C overnight.
# [13] = system: Candida albicans ATCC 90028; test: Antifungal MIC (CO-ADD screening); type: cell-based
# Procedure: as §9, §10, §4, §11, §12
# [14] = system: Staphylococcus aureus ATCC 43300 (MRSA); test: microbe, parasite or virus in culture; type: cell-based; conditions: for MIC Sa: CO‐ADD screening; for MIC: n=2; for MIC values as low as (panel of S. aureus strains): lowest MIC within the S. aureus panel
# Procedure: as §8, §1, §2, §3, §4, §5, §6, §7
# [15] = system: Klebsiella pneumoniae ATCC 700603 (ESBL SHV‐18)
# Procedure: as §8, §1, §2, §3, §4, §5, §6, §7
# human red blood cells = test: Haemolysis assay; type: cell-based; conditions: for Haemolysis HC10: concentration inducing 10 % haemolysis; for Haemolysis HC50: concentration inducing 50 % haemolysis
# Procedure: (§13) As part of the CO‐ADD screening, all compounds that show any activity against a microbial strain are evaluated for their cytotoxicity against human embryonic kidney cells (HEK‐293) and for haemolysis against human red blood cells. None of the compounds tested for cytotoxicity (Pt1‐9 and Pd1) caused any significant cell death up to concentrations of 100 μM. […] We have also observed higher IC50 values for the methylated complexes Pt3 and Pt4 against HeLa cells in previous work.[16]
# The resultant mid-log phase cultures were diluted
# Gram-negative and Gram-positive bacteria, respectively.
# final concentration range of 0.8 – 100 µM.
# (§14) inhibitors as positive control.
# (§15) Tamoxifen (Sigma T5648) was used
# (§16) as internal control on each plate.
# in a Neubauer haemocytometer.
# incubated for 1 h at 37 °C, without shaking.
# HC10 and HC50 (concentration at which 10%
# for top, bottom and slope using Prism 8. […]
# [16] = system: HEK-293 ATCC CRL-1573 human embryonic kidney cells; type: cell-based
# Procedure: as §13, with “work.[16] […]” for “work.[16]”
# as §14, §15, §16
# in a Neubauer haemocytometer. […]
SMILES,MIC Ab [9] [µM],MIC Ec [10] [µM],MIC Pa [11] [µM],MIC Cn [12] [µM],MIC Ca [13] [µM],MIC Sa [14] [µM],MIC Kp [15] [µM],Haemolysis HC10 (human red blood cells) [µM],Haemolysis HC50 (human red blood cells) [µM],CC50 [16] [µM],MIC ([1]; Table 2 panel),MIC ([2]; Table 2 panel),MIC ([3]; Table 2 panel),MIC ([4]; Table 2 panel),MIC ([5]; Table 2 panel),MIC ([6]; Table 2 panel),MIC ([7]; Table 2 panel),MIC ([8]; Table 2 panel),MIC ([14]; Table 2 panel),MIC values as low as (panel of S. aureus strains) [14] [nM],other results
CCC1=CCCC=CCC1.[CH3][Pt][Cl] [Pt7],>20,>20,>20,20,10,>20,>20,10.27,52.12,> 100,,,,,,,,,,,MIC ([1]; Table S1 panel): > 200 µM; MIC ([2]; Table S1 panel): > 200 µM; MIC ([3]; Table S1 panel): > 200 µM; MIC ([4]; Table S1 panel): > 200 µM; MIC ([5]; Table S1 panel): > 200 µM; MIC ([6]; Table S1 panel): 200 µM; MIC ([7]; Table S1 panel): 200 µM; MIC ([8]; Table S1 panel): > 200 µM; MIC ([14]; Table S1 panel): 200 µM
"C1=CCC/C=C\CC1.[I][Pt][I] [Pt2, Pt(COD)I2]",>20,>20,>20,2.5,10,1.25,>20,>100,>100,> 100,3.125–6.25^[b] μg/mL,25–50^[a] μg/mL,6.25^[a] μg/mL,12.5–25^[a] μg/mL,25^[a] μg/mL,12.5–25^[b] μg/mL,1.56^[a] μg/mL,25^[a] μg/mL,0.39–0.78^[b] μg/mL,390,
"C1=C\CC/C=C\CC/1.[Cl-].[Cl-].[Pt+2] [Pt1, Pt(COD)Cl2]",>20,>20,>20,1.25 to 5,10 to 20,0.625 to 2.5,>20,>100,>100,> 100,6.25^[b] μg/mL,50–100^[a] μg/mL,3.125^[a] μg/mL,25^[a] μg/mL,25–50^[a] μg/mL,12.5^[b] μg/mL,0.781^[a] μg/mL,25^[a] μg/mL,0.39^[b] μg/mL,390,
